Assays:
[1] = Solubility of curcumin and quercetin in phosphate buffer pH 6.8; assay type: physicochemical; details: 0.2 µm filter
Method: Following the same protocol, the same amount of quercetin (150 mg) is solubilized in phosphate buffer pH 6.8. […] Solubilized quercetin: […] of the initial dose.

[2] = 42 mg or 84 mg of oral curcumin; even under metabolised forms; cited from earlier work

| Solubilized curcumin ([1]; 84 mg curcumin in 900 ml phosphate buffer pH 6.8, 1 hour at 37°C) | Solubilized quercetin ([1]; 900 ml phosphate buffer pH 6.8, 1 h at 37°C) | SMILES | oral bioavailability of low dosages of curcumin [2] |
| --- | --- | --- | --- |
| 0.004 % of the initial dose | – | COc1cc(C=CC(=O)CC(=O)C=Cc2ccc(O)c(OC)c2)ccc1O [curcumin, 1,7-bis(4-hydroxyl-3-methoxyphenyl)-1,6-heptadiene-3,5-dione] | not bioavailable at all |
| – | 4 % of the initial dose | O=c1c(O)c(-c2ccc(O)c(O)c2)oc2cc(O)cc(O)c12 [quercetin, Quercetin] | – |
